Reference: paper PMC12048343, “Discovery of a small molecule secreted clusterin enhancer that improves memory in Alzheimer’s disease mice” (npj Drug Discovery, 2025)
In brackets after ≈: the same amount, converted by molar mass.

What was measured:
[1] = In-vivo pharmacokinetics, brain levels after oral administration; details: mice
Protocol: Following oral administration of compound, mice brain tissue and plasma were collected after euthanasia and perfusion at 1, 2, 4, 6 and 8 h. All animals will be euthanized by ketamine/xylazine injection to allow cardiac puncture and saline perfusion, which is consistent with recommendations of the AVMA Panel on Euthanasia. Brain tissue were homogenized in a bead beater using 5 volumes of ice-cold 80% acetonitrile (1/5; mg of brain/µL of 80% ACN). Plasma analytes were extracted using 4 volumes of ice-cold acetonitrile (1/4; µL of plasma/µL of ACN). Solutions were clarified by centrifugation (16,000 x g, 5 min) and the supernatants were transferred to new tubes and lyophilized. Samples were reconstituted in 100 µL of 50/50/0.1 (Water/Acetonitrile/Formic Acid) prior to analysis via liquid chromatography-tandem mass spectrometry (LC-MS/MS). An internal standard (IS) was added to every sample to account for compound loss during sample processing. Standards were made in drug naïve plasma and brain lysates with increasing amounts of analyte (S1,S2: 0 pmol/ S3,S4: 1 pmol/ S5,S6: 10 pmol/ S7,S8: 100 pmol, S9,S10: 1000 pmol). The standard curve was made by plotting the known amount of analyte per standard vs. the ratio of measured chromatographic peak areas corresponding to the analyte over that of the IS (analyte/IS). The trendline equation was then used to calculate the absolute concentrations of each compound in plasma and brain tissue.
Analysis of compound levels was done at the UCLA Pasarow Mass Spectrometry Lab (PMSL; Julian Whitelegge, Ph.D., Director). A targeted LC-MS/MS assay was developed for each compound using the multiple reaction monitoring (MRM) acquisition method on a 6460 triple quadrupole mass spectrometer (Agilent Technologies) coupled to a 1290 Infinity HPLC system (Agilent Technologies) with a Phenomenex analytical column (Kinetex 1.7 µm C18 100 Å 100 ×2.1 mm). The HPLC method utilized a mixture of solvent A ([…]) and solvent B ([…]) and a gradient was use for the elution of the compounds (min/%B: 0/1, 3/1, 19/99, 20/1, 30/1). Two fragment ions originating from each compound were monitored at specific LC retention times to ensure specificity and accurate quantification in the complex biological samples. The normalized chromatographic peak areas were determined by taking the ratio of measured chromatographic peak areas corresponding to each compound over that of the internal standard (Analyte/IS).

[2] = target: BRD4 (Homo sapiens, UniProt O60885); assay: BRD4 inhibition assay; format: biochemical
[3] = Kinetic solubility; format: physicochemical; details: aqueous buffer, kinetic from dmso stock, PBS pH 7.4, 37 °C, 100 µM nominal
Protocol: Test compound (10 mM, 100% DMSO) was diluted separately into aqueous buffer (100 µM; PBS pH 7.4) and DMSO at various concentrations (1000, 100, 10, 1, 0.1 µM). The solutions were then incubated at 37 °C for 90 min and centrifuged (16000xg, 5 min). An aliquot of each supernatant was analyzed by UV/Vis (if possible) or LC-MS/MS. A standard curve was made by plotting the known amount of analyte per standard in DMSO vs. absorbance or chromatographic peak area. Kinetic solubility (mM) was calculated using the trendline equation with maximum absorbance or chromatographic peak area observed in the aqueous sample.

[4] = test system: sirtuin 1 (SirT1) expression in SH-SY5Y cells; assay: SirT1 AlphaLISA in SH-SY5Y cell lysate; format: cell-based, human; details: 200 nM, 24 h
Protocol: Additional assays: The Aβ1-42 ELISA assay was performed on hippocampus brain homogenate according to the manufacturer’s protocol (Fisher KHB3441). Humanin in cell culture lysate was quantify by ELISA assay, according to the manufacturer’s protocol (MyBioSourc Cat# MBS7607247). SirT1 in cell culture lysate was quantify using AlphaLISA. Cell lysate (2 μL) was added to a 384-well proxy plate preloaded with 2 µL anti-SiRT1 antibody mixture (ABCAM catalog AB110304, biotinylated (10 nM) and ABCAM catalog AB104833, acceptor bead conjugated (50 µg/mL, Cat#6772001, Perkin Elmer)) was added and incubated at room temperature for 1 hour. AlphaScreen Streptavidin Donor beads (2 µL, Cat#6760002S, Perkin Elmer) were added, incubated for an additional 30 min in the dark, and the plate was read in an Envision plate reader.

| Structure (SMILES) | unbound brain concentration versus sCLU EC50 ([1]; oral 3, 10 or 30 mg/kg (Fig. S6)) | IC50 [2] [nM] | solubility kinetic at 90 min [3] [µM] | unbound brain concentration versus sCLU EC50 ([1]; oral 3 mg/kg, one hour post administration) | unbound brain concentration versus sCLU EC50 ([1]; oral 10 mg/kg, one hour post administration) | maximum brain concentration (total) ([1]; oral 30 mg/kg, one hour after administration) [nM] | concentration at 1 h ([1]; mouse, oral 30 mg/kg, 1 h, from total brain level and brain tissue binding 75.3%, read-out: unbound brain concentration) [nM] | sirtuin 1 (SirT1) expression [4] |
| --- | --- | --- | --- | --- | --- | --- | --- | --- |
| Cc1sc2c(c1C)C(c1ccc(Cl)cc1)=N[C@@H](CC(=O)OC1COC1)c1nnc(C)n1-2 [DDL-356] | reaches higher concentrations of unbound drug in the brain above its sCLU EC50 at lower doses | 23 | > 100 |  |  |  |  |  |
| Cc1sc2c(c1C)C(c1ccc(Cl)cc1)=N[C@@H](CC(=O)OC1CC1)c1nnc(C)n1-2 [DDL-357] |  | 20 | 80 (≈ 35.3 µg/mL) | below the sCLU EC50 | below the sCLU EC50 | 1850 | 457 | significantly increased expression |
